Measurements from patent USRE47761E1, “Anti-axl antibodies and methods of use” (Genentech, Inc., priority 2010, dated 2019).
Entries after “also recorded” stand apart in the source; their conditions may differ.

Key:
MDA-MB-231 xenograft = MDA-MB-231 xenograft tumor growth; format: in vivo, SCID mice
tumor vasculature [1] = assay: Intratumoral vascular density (MECA32) in A549 xenograft tumors; format: in vivo, mice
Procedure: (§1) Mice were removed from the study when their tumor size reached 800 mm^3, and the animals remaining in each group (% remaining) were plotted. C. […] 12A11 and anti-VEGF was administrated IP at 30 mg/kg and 1 mg/kg, respectively, twice a week, starting when the mean tumor size reached 100 mm^3 (day 0). […] Cell lysates from tumors were analyzed by Western blot for Axl expression. […] Tumors from mice treated as above in D were excised at 0 and 72 hr post dosing and tumor vasculature was visualized by staining with MECA32 immunohistochemistry and quantified by image analysis (expressed as microns square).
Tumor samples were stained with MECA32, a pan endothelial cell marker. Images were acquired by the Ariol SL-50 automated slide scanning platform (Genetix Ltd.; Hampshire, UK) at 100× final magnification. Tumor-specific areas were exported for analysis in the Metamorph software package (MDS Analytical Technologies; Ontario, Canada) as individual 8-bit images. The brown DAB-specific staining was isolated from the Hematoxylin counterstain using a blue-normalization algorithm as described (Brey et al, 2003). […] Area measurements were recorded for individual vessels, as well as the tumor and non-tumor areas in each image. Raw values based on image analysis were analyzed using the JMP 8.0 software (SAS Institute, Inc. North Carolina, USA). […]

A549 xenograft tumors = assay: Cleaved caspase 3 and Ki67 IHC of A549 xenograft tumors; format: in vivo, mice; conditions: A549 tumors treated two weeks, versus control
Procedure: B. Kaplan-Meier curve of various treatment groups. […] C. 12A11 enhances the effect of anti-VEGF.
Xenograft tumor samples were fixed in 10% neutral buffered formalin, processed, embedded in paraffin, and sectioned at 4 μm. Thin sections were then treated with primary antibodies for Ki67, cleaved caspase 3 and MECA32, followed by biotinylated secondary antibodies and the DAB chromagen.

[2] = test system: MDA-MB-231 breast cancer cells; assay: MDA-MB-231 metastasis after tail vein injection (bioluminescence); format: in vivo, SCID mice
Procedure: A. Bioluminescence imaging 4 weeks after tail vein injection of tumor cells. Mice were injected intraperitoneally (i.p.) with 200 μL of 25 mg/ml D-luciferin (Invitrogen) in PBS and were anesthetized during imaging using isoflurane via nose cone. Bioluminescence images were acquired on the Photon Imager (Biospace Lab, Paris, France) that has an intensified charge-coupled device camera. B. H & E staining of the tibia sections.
For metastasis studies, 5×10^5 MDA-MB-231 cells stably transfected with a luciferase reporter gene (Li et al, 2009) were implanted into SCID mice via tail vein injection. Metastasis of tumor cells to various organs was monitor by bioluminescence detection as described (Li et al, 2009).

cynomolgus Axl = assay: Cross reaction ELISA, cynomolgus Axl; format: binding
Procedure: (§2) A-B. Affinity measurement of YW327.6S2 using BIAcore. Association rates (kon) and dissociation rates (koff) were calculated using the one-to-one Langmuir binding model. The equilibrium dissociation constant (Kd) was derived as the […]. C. […] Plates were coated with anti-human IgG Fc, and then incubated with human Axl, Mer, Tyro3 Fcs, mouse or cynomolgus AxlFcs. After washing, isotype control antibody or YW327.6S2 was added and followed by HRP conjugated anti-human IgG. […] FIG. 7D: ELISA. Plates were coated with anti-human IgG Fc and incubated with human Axl-Fc. After washing, Gas6 was added with or without antibodies. Binding of Gas6 was detected by biotylated anti-Gas6 antibody and streptavidin-HRP conjugate. FIG. 7E: FACS. […] Binding of Gas6 to the cell surface was detected by biotylated anti-Gas6 antibody and streptavidin-PE conjugate. […] Phosphorylated Axl was measured by ELISA (upper panel), and phosphorylated Akt by Western Blotting analysis (lower panel). […] Cell viability was measured by CellTiter Glo assay.
ELISA assays were performed as follows: goat anti-human IgG Fc coated plates were blocking with 0.5% BSA, PBS, 0.05% Tween 20 (PBST). […] Secreted Ang-2 and DKK3 was measured using R&D ELISA kit, according to the manufacturer's instruction. Axl expression on cell surface was determined by FACS using standard techniques. […] Samples were analyzed on BD FACScalibur Flow Cytometer.

tumor vasculature [3] = assay: Intra-tumoral vascular density (MECA32) in MDA-MB-231 xenograft tumors; format: in vivo, SCID mice; conditions: MDA-MB-231 tumors
Procedure: (§3) Cell lysates from tumors were used in Western blot analysis for Axl expression. […] F. Axl is highly expressed in infiltrating macrophages of primary human breast cancer. Immunohistochemistry was used to examine 79 primary tumors. 21% of these tumors express high levels of Axl in the infiltrating macrophages. Macrophages were identified by staining with anti-CD68, and expression of Axl on macrophages was determined by anti-Axl/CD68 dual IHC. Serial sections were used. […] Tumor associated macrophages were isolated by sorting for F4/80 positive cells and cultured overnight. Cytokines and chemokines secreted into the medium were measured using the Bio-Plea mouse cytokine assay kit.
Tumor samples were stained with MECA32, a pan endothelial cell marker. Images were acquired by the Ariol SL-50 automated slide scanning platform (Genetix Ltd.; Hampshire, UK) at 100× final magnification. Tumor-specific areas were exported for analysis in the Metamorph software package (MDS Analytical Technologies; Ontario, Canada) as individual 8-bit images. […] Area measurements were recorded for individual vessels, as well as the tumor and non-tumor areas in each image. Raw values based on image analysis were analyzed using the JMP 8.0 software (SAS Institute, Inc. North Carolina, USA). […]

A549 xenograft = conditions: for reduction in tumor growth as a single agent: A549, FIG. 9A, erlotinib 100 mg/kg/day oral gavage
Procedure: as §1
All studies were conducted in accordance with the “Guide for the Care and Use of Laboratory Animals” (NIH), and approved by the Institutional Animal Care and Used Committee (IACUC). A total of 5×10^6 (A549) or 10^7 cells in matrigel (MDA-MB-231) were implanted subcutaneously into right flank of nude (A549) or SCID mice (MDA-MB-231), respectively. When the average tumor sized reached 100 mm^3, mice were randomized and divided into different treatment groups (n=10 for each group). Anti-Axl or control IgG1 antibodies were at administrated at 10-30 mg/kg, anti-VEGF at 1-2 mg/kg, via intraperitoneal injection (IP), twice weekly. Erlotinib was administrated by oral gavage at 100 mg/kg/day. Paclitaxel and carboplatin were administrated subcutaneously at 6.25 mg/kg/day for 5 days, and 100 mg/kg for a single dose, respectively, at the beginning of the treatment. Statistic analyses were performed using Anova two-way for comparison of tumor growth in different treatment groups.

[4] = test system: tumor-associated macrophages; assay: Cytokine/chemokine secretion from tumor-associated macrophages of MDA-MB-231 xenografts; format: in vivo, mice; conditions: MDA-MB-231 tumors treated one week, 20 mg/kg, versus control antibody
Procedure: as §3
Tumors were dissected, chopped into small pieces and incubated in RPMI1640 medium with 2.5% FBS, 0.2 units/ml Liberase Blendzymes II and 5 units/ml DNaseI, (Roche). Tumor cells were disassociated using MACS Dissociator (Miltenyi Biotec) and maintained for 20 minutes at room temperature. EDTA (final concentration 0.002%) was added to stop the reaction. Single cell suspensions were prepared, and red blood cells were removed using RBC lysis buffer (eBioscience). […] Cultured media was collected and the levels of cytokines and chemokines were determined using Bio-Plex mouse cytokine assays (Bio-Rad) according to manufacturer's instructions.

Akt = assay: Gas6-induced Akt phosphorylation in H1299 cells (Western blotting); format: cell-based, human; conditions: pre-incubated 4 hrs, Gas6 30 minutes
Procedure: as §2

[5] = biological target: T1, human Axl ECD-His protein (human, UniProt P30530 26-451); assay: SPR (BIAcore-3000); anti-Axl human IgG captured by anti-human IgG, human Axl ECD-His injected
T1 construct: also called Hu Axl; not shown: His tag
T1 sequence (P30530 other isoform, or with tags, fused parts or gaps): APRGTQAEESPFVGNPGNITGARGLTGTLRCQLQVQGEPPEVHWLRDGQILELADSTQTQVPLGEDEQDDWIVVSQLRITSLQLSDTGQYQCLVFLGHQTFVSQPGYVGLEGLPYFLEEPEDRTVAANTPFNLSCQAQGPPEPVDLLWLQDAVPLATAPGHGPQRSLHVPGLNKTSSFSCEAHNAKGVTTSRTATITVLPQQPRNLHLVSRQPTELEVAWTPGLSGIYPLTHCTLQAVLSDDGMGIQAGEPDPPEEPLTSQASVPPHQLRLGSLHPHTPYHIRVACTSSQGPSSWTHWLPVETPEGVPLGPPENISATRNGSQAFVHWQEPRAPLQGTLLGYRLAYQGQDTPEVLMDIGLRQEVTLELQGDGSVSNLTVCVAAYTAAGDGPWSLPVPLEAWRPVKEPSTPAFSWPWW

With “YW327.6S2: Affinity matured phage-derived human anti-Axl monoclonal antibody, from clone YW327.6” the “reduction of tumor growth, antibody alone” value (MDA-MB-231 xenograft; 20 mg/kg IP twice a week) was 25%, the “reduction in tumor growth, combination therapy with anti-VEGF” value (MDA-MB-231 xenograft; 20 mg/kg with anti-VEGF 2 mg/kg) was 50% and the “intratumoral vascular density, antibody alone” value (tumor vasculature [1]) was “did not significantly reduced”. The “intratumoral vascular density, combination with anti-VEGF” value (tumor vasculature [1]) was “significant decrease; also recorded: enhances the effect of anti-VEGF in reducing intra-tumoral vascular density”, the Ki67 positive nuclei (A549 xenograft tumors) was “no significant difference” and the “cleaved caspase 3 (CC3), apoptosis” value (A549 xenograft tumors) was “increased; also recorded: induces apoptosis”. The “sites detected by bioluminescence, total for the entire group” value ([2]; four weeks after injection, control group total 18) was 7, the “metastasis of MDA-MB-231 cells (sites detected by bioluminescence), in words” value ([2]; versus control antibody) was “significantly reduced; also recorded: reduces” and the “binding to cynomolgus Axl” value (cynomolgus Axl) was “binds; also recorded: cross reacts”. The “intra-tumoral vascular density, single antibody versus control” value (tumor vasculature [3]) was “significantly reduced; also recorded: reduces”, the “tumor associated vascular density, combination with anti-VEGF” value (tumor vasculature [3]) was “further reduction” and the “reduction in tumor growth as a single agent” value (A549 xenograft) was 30%. For the same molecule, the “tumor growth inhibition by single agent” value (A549 xenograft; A549, YW327.6S2 10 mg/kg or anti-VEGF 1 mg/kg IP twice a week) was 30%, the “duration of tumor stasis after treatment cessation” value (A549 xenograft; A549, co-administration with anti-VEGF) was “at least 4 weeks” and the “effect on the anti-tumor effect of anti-VEGF” value (A549 xenograft; A549, combination with anti-VEGF 1 mg/kg) was “enhances”. The “tumor re-growth from last dose to day 85” value (A549 xenograft; A549, in combination with anti-VEGF) was “no tumor re-growth”, the “survival at end of experiment (Kaplan-Meier, tumor size 800 mm^3 cutoff)” value (A549 xenograft; A549, in combination with anti-VEGF, day 85) was “survival of all the animals” and the “delay of tumor growth compared to a single agent” value (A549 xenograft; A549, in combination with anti-VEGF, dosed 60 days, followed to day 85) was “significantly delayed tumor growth”. For the same molecule, the “reduction of tumor growth rate in combination with erlotinib” value (A549 xenograft; mouse, in vivo) was “more than 50%”, the “tumor growth inhibition by the combination treatment” value (A549 xenograft; mouse, in vivo) was 60% and the “inflammatory cytokines and chemokines produced by TAMs” value [4] was “much lower levels; also recorded: inhibits”. For the same molecule, the “Gas6-induced phosphorylation of Akt” value (Akt) was “blocks”.

With `C#Cc1cccc(Nc2ncnc3cc(OCCOC)c(OCCOC)cc23)c1` [erlotinib, reference compound] the “reduction in tumor growth as a single agent” value (A549 xenograft) was 30%.

B1: YW327.6S2 (antibody, V domains shown)
VH: EVQLVESGGGLVQPGGSLRLSCAASGFSLSGSWIHWVRQAPGKGLEWVGWINPYRGYAYYADSVKGRFTISADTSKNTAYLQMNSLRAEDTAVYYCAREYSGWGGSSVGYAMDYWGQGTLV
VL: DIQMTQSPSSLSASVGDRVTITCRASQDVSTAVAWYQQKPGKAPKLLIYSASFLYSGVPSRFSGSGSGTDFTLTISSLQPEDFATYYCQQSYTTPPTFGQGTKVEIKR
With B1 the Kd [5] was about 1 nM.
